Paper doi:10.1101/2025.01.28.635346v1 (bioRxiv, 2025)
Read-outs that look alike come from different tables or passages of the source. Each block holds one compound with its values, some of them ahead of it. Bridge positions count the residues as written; N and C are the ends. Side chains are listed from the residue outwards. Peptide text beside a SMILES is read from it. * marks the point of attachment. Butanoyl(4-(4-I-phenyl)) = O=C(CCCc1ccc(I)cc1)*; PEG2 = NCCOCCOCCC(=O)O

Legend:
integrin αvβ6 = integrin αvβ6 (Homo sapiens, UniProt P06756+P18564); assay: ELISA competition assay, integrin αvβ6 binding to LAP
integrin αvβ8 = integrin αvβ8 (Homo sapiens, UniProt P06756+P26012); assay: ELISA competition assay, integrin αvβ8 binding to LAP
[1] = Pharmacokinetics in female Balb/c mice; assay type: in vivo, mouse
[2] = αvβ6 IC50, ELISA competition vs LAP, mean, n ≥ 3
[3] = Table S3E, IP 10 mg/kg, mouse, animal 1F001
[4] = Table S3E, IP 10 mg/kg, mouse, animal 1F002
[5] = Table S3E, IP 10 mg/kg, mouse, animal 1F003
[6] = Table S3E, IP 10 mg/kg, mouse, animal 1F005
[7] = female, Balb/c, mouse, plasma, ip, 10 mg/kg

Compound: CC[C@H](C)[C@H](NC(=O)[C@H](CC(C)C)NC(=O)[C@H](CC(=O)O)NC(=O)CNC(=O)[C@H](CCCNC(=N)N)NC(=O)[C@@H](NC(=O)[C@H](Cc1ccccc1)NC(=O)[C@H](Cc1ccc(O)cc1)NC(=O)[C@@H]1CCC(=O)NCC(=O)NCC(=O)N[C@@H]([C@@H](C)O)C(=O)NCC(=O)N[C@@H](Cc2c[nH]cn2)C(=O)N[C@@H](C(C)C)C(=O)N2CCC[C@H]2C(=O)N1)C(C)C)C(=O)N[C@@H](CO)C(=O)N[C@@H](Cc1ccccc1)C(=O)N[C@@H](Cc1ccc(O)cc1)C(=O)NCC(=O)O [lassotide 34] (GGTGHVPEYFVRGDLISFYG-OH; lactam N-8; C-terminus assumed)
IC50 (integrin αvβ6; [2]): 44 nM
IC50 (integrin αvβ8): 28 nM

Compound: CC[C@H](C)[C@H](NC(=O)[C@H](CC(C)C)NC(=O)[C@H](CC(=O)O)NC(=O)CNC(=O)[C@H](CCCNC(=N)N)NC(=O)[C@@H](NC(=O)[C@H](Cc1ccccc1)NC(=O)[C@H](Cc1ccc(O)cc1)NC(=O)[C@@H]1CCC(=O)NCC(=O)NCC(=O)N[C@@H](CCC(=O)O)C(=O)NCC(=O)N[C@@H](Cc2c[nH]cn2)C(=O)N[C@@H](C(C)C)C(=O)N2CCC[C@H]2C(=O)N1)C(C)C)C(=O)N[C@@H](CO)C(=O)N[C@@H](Cc1ccccc1)C(=O)N[C@@H](Cc1ccc(O)cc1)C(=O)NCC(=O)O [lassotide 29] (GGEGHVPEYFVRGDLISFYG-OH; lactam N-8; C-terminus assumed)
IC50 (integrin αvβ6; [2]): 104 nM
IC50 (integrin αvβ8): 47 nM

Compound: CC[C@H](C)[C@H](NC(=O)[C@H](CC(C)C)NC(=O)[C@H](CC(=O)O)NC(=O)CNC(=O)[C@H](CCCNC(=N)N)NC(=O)[C@@H](NC(=O)[C@H](Cc1ccccc1)NC(=O)[C@H](Cc1ccc(O)cc1)NC(=O)[C@@H]1CCC(=O)NCC(=O)NCC(=O)N[C@@H](Cc2c[nH]cn2)C(=O)NCC(=O)N[C@@H](Cc2c[nH]cn2)C(=O)N[C@@H](C(C)C)C(=O)N2CCC[C@H]2C(=O)N1)C(C)C)C(=O)N[C@@H](CO)C(=O)N[C@@H](Cc1ccccc1)C(=O)N[C@@H](Cc1ccc(O)cc1)C(=O)NCC(=O)O [lassotide 31] (GGHGHVPEYFVRGDLISFYG-OH; lactam N-8; C-terminus assumed)
IC50 (integrin αvβ6; [2]): 21 nM
IC50 (integrin αvβ8): 27 nM

Compound: CC[C@H](C)[C@@H]1NC(=O)[C@H](CO)NC(=O)CNC(=O)[C@H](CCCNC(=N)N)NC(=O)CNC(=O)CNC(=O)CC[C@@H](C(=O)N[C@@H](Cc2ccc(O)cc2)C(=O)N[C@@H](Cc2ccccc2)C(=O)N[C@H](C(=O)N[C@@H](CCCNC(=N)N)C(=O)NCC(=O)N[C@@H](CC(=O)O)C(=O)N[C@@H](CC(C)C)C(=O)N[C@@H](CCC(N)=O)C(=O)N[C@@H](CO)C(=O)N[C@@H](Cc2ccccc2)C(=O)N[C@@H](Cc2ccc(O)cc2)C(=O)NCC(=O)O)C(C)C)NC(=O)[C@@H]2CCCN2C1=O [lassotide 41] (GGRGSIPEYFVRGDLQSFYG-OH; lactam N-8; C-terminus assumed)
IC50 (integrin αvβ6; [2]): 1.4 nM
IC50 (integrin αvβ8): 5.8 nM

Compound: CC(C)C[C@H](NC(=O)[C@H](CC(=O)O)NC(=O)CNC(=O)[C@H](CCCNC(=N)N)NC(=O)[C@@H](NC(=O)[C@H](Cc1ccccc1)NC(=O)[C@H](Cc1ccc(O)cc1)NC(=O)[C@@H]1CCC(=O)NCC(=O)NCC(=O)N[C@@H](CCCNC(=N)N)C(=O)NCC(=O)N[C@@H](CCC(N)=O)C(=O)N[C@@H](C(C)C)C(=O)N2CCC[C@H]2C(=O)N1)C(C)C)C(=O)N[C@@H](CCC(N)=O)C(=O)N[C@@H](CO)C(=O)N[C@@H](Cc1ccccc1)C(=O)N[C@@H](Cc1ccc(O)cc1)C(=O)NCC(=O)O [lassotide 40] (GGRGQVPEYFVRGDLQSFYG-OH; lactam N-8; C-terminus assumed)
IC50 (integrin αvβ6; [2]): 2 nM
IC50 (integrin αvβ8): 2.6 nM

Compound: CC[C@H](C)[C@@H]1NC(=O)[C@H](CCC(N)=O)NC(=O)CNC(=O)[C@H](CCCNC(=N)N)NC(=O)CNC(=O)CNC(=O)CC[C@@H](C(=O)N[C@@H](Cc2ccc(O)cc2)C(=O)N[C@@H](Cc2ccccc2)C(=O)N[C@H](C(=O)N[C@@H](CCCNC(=N)N)C(=O)NCC(=O)N[C@@H](CC(=O)O)C(=O)N[C@@H](CC(C)C)C(=O)N[C@@H](CCC(N)=O)C(=O)N[C@@H](CO)C(=O)N[C@@H](Cc2ccccc2)C(=O)N[C@@H](Cc2ccc(O)cc2)C(=O)NCC(=O)O)C(C)C)NC(=O)[C@@H]2CCCN2C1=O [lassotide 42] (GGRGQIPEYFVRGDLQSFYG-OH; lactam N-8; C-terminus assumed)
IC50 (integrin αvβ6; [2]): 3 nM
IC50 (integrin αvβ8): 2.5 nM

Compound: CC[C@H](C)[C@H](NC(=O)[C@H](CC(C)C)NC(=O)[C@H](CC(=O)O)NC(=O)CNC(=O)[C@H](CCCNC(=N)N)NC(=O)[C@@H](NC(=O)[C@H](Cc1ccccc1)NC(=O)[C@H](Cc1ccc(O)cc1)NC(=O)[C@@H]1CCC(=O)NCC(=O)NCC(=O)N[C@@H](CCCCNC(=O)CCOCCOCCNC(=O)CCCc2ccc(I)cc2)C(=O)NCC(=O)N[C@@H](Cc2c[nH]cn2)C(=O)N[C@@H](C(C)C)C(=O)N2CCC[C@H]2C(=O)N1)C(C)C)C(=O)N[C@@H](CO)C(=O)N[C@@H](Cc1ccccc1)C(=O)N[C@@H](Cc1ccc(O)cc1)C(=O)N[C@@H](CCCCNC(=O)CCOCCOCCNC(=O)CCCc1ccc(I)cc1)C(=O)O [lassotide 52] (GGK([PEG2-Butanoyl(4-(4-I-phenyl))])GHVPEYFVRGDLISFYK([PEG2-Butanoyl(4-(4-I-phenyl))])-OH; lactam N-8)
further increase in half-life ([1]; 52 vs 47, 10 mg/kg IP, mice): 4.4 fold
Plasma Concentration ([1]; IP 10 mg/kg, 1.0 h, animal 1F001): 31600 ng/mL
Plasma Concentration ([1]; IP 10 mg/kg, 1.0 h, animal 1F002): 21000 ng/mL
Plasma Concentration ([1]; IP 10 mg/kg, 1.0 h, animal 1F003): 36300 ng/mL
Plasma Concentration ([1]; IP 10 mg/kg, 1.0 h, animal 1F005): 34200 ng/mL
Plasma Concentration ([1]; IP 10 mg/kg, 2.0 h, animal 1F001): 50800 ng/mL
Plasma Concentration ([1]; IP 10 mg/kg, 2.0 h, animal 1F002): 35000 ng/mL
Plasma Concentration ([1]; IP 10 mg/kg, 2.0 h, animal 1F003): 53100 ng/mL
Plasma Concentration ([1]; IP 10 mg/kg, 2.0 h, animal 1F005): 40000 ng/mL
Plasma Concentration ([1]; IP 10 mg/kg, 4.0 h, animal 1F001): 54500 ng/mL
Plasma Concentration ([1]; IP 10 mg/kg, 4.0 h, animal 1F002): 51100 ng/mL
Plasma Concentration ([1]; IP 10 mg/kg, 4.0 h, animal 1F003): 59300 ng/mL
Plasma Concentration ([1]; IP 10 mg/kg, 4.0 h, animal 1F005): 43400 ng/mL
Plasma Concentration ([1]; IP 10 mg/kg, 8.0 h, animal 1F001): 45300 ng/mL
Plasma Concentration ([1]; IP 10 mg/kg, 8.0 h, animal 1F002): 43800 ng/mL
Plasma Concentration ([1]; IP 10 mg/kg, 8.0 h, animal 1F003): 51000 ng/mL
Plasma Concentration ([1]; IP 10 mg/kg, 8.0 h, animal 1F005): 35200 ng/mL
Plasma Concentration ([1]; IP 10 mg/kg, 12 h, animal 1F001): 37900 ng/mL
Plasma Concentration ([1]; IP 10 mg/kg, 12 h, animal 1F002): 43800 ng/mL
Plasma Concentration ([1]; IP 10 mg/kg, 12 h, animal 1F003): 43800 ng/mL
Plasma Concentration ([1]; IP 10 mg/kg, 12 h, animal 1F005): 30500 ng/mL
Plasma Concentration ([1]; IP 10 mg/kg, 24 h, animal 1F001): 22500 ng/mL
Plasma Concentration ([1]; IP 10 mg/kg, 24 h, animal 1F002): 24300 ng/mL
Plasma Concentration ([1]; IP 10 mg/kg, 24 h, animal 1F003): 34800 ng/mL
Plasma Concentration ([1]; IP 10 mg/kg, 24 h, animal 1F005): 19900 ng/mL
Plasma Concentration ([1]; IP 10 mg/kg, 36 h, animal 1F001): 16100 ng/mL
Plasma Concentration ([1]; IP 10 mg/kg, 36 h, animal 1F002): 17400 ng/mL
Plasma Concentration ([1]; IP 10 mg/kg, 36 h, animal 1F003): 22000 ng/mL
Plasma Concentration ([1]; IP 10 mg/kg, 36 h, animal 1F005): 13400 ng/mL
Plasma Concentration ([1]; IP 10 mg/kg, 48 h, animal 1F001): 11200 ng/mL
Plasma Concentration ([1]; IP 10 mg/kg, 48 h, animal 1F002): 12400 ng/mL
Plasma Concentration ([1]; IP 10 mg/kg, 48 h, animal 1F003): 13200 ng/mL
Plasma Concentration ([1]; IP 10 mg/kg, 48 h, animal 1F005): 7330 ng/mL
AUClast [1, 3]: 1290 µg·h/mL
CL/F [1, 3]: 0.104 mL/min/kg
Cmax [1, 3]: 54500 ng/mL
Tmax [1, 3]: 4.0 h
Vz/F [1, 3]: 0.179 L/kg
t1/2 [1, 3]: 20 h
AUClast [1, 4]: 1330 µg·h/mL
CL/F [1, 4]: 0.0981 mL/min/kg
Cmax [1, 4]: 51100 ng/mL
Tmax [1, 4]: 4.0 h
Vz/F [1, 4]: 0.176 L/kg
t1/2 [1, 4]: 21 h
AUClast [1, 5]: 1610 µg·h/mL
CL/F [1, 5]: 0.0829 mL/min/kg
Cmax [1, 5]: 59300 ng/mL
Tmax [1, 5]: 4.0 h
Vz/F [1, 5]: 0.151 L/kg
t1/2 [1, 5]: 21 h
AUClast [1, 6]: 1050 µg·h/mL
CL/F [1, 6]: 0.134 mL/min/kg
Cmax [1, 6]: 43400 ng/mL
Tmax [1, 6]: 4.0 h
Vz/F [1, 6]: 0.21 L/kg
t1/2 [1, 6]: 18 h
Tmax ([1]; Table S3E: IP 10 mg/kg, female Balb/c mice, Mean N=4): 4.00 h
AUC(0-t) [1, 7]: 1320 µg·h/mL
CL/F [1, 7]: 0.105 mL/min/kg
Cmax [1, 7]: 52100 ng/mL
Tmax [1, 7]: 4 h
Vd/F [1, 7]: 0.179 L/kg
half-life [1, 7]: 20 h
level at 1 h [1, 7]: 30800 ng/mL
level at 2 h [1, 7]: 44700 ng/mL
level at 4 h [1, 7]: 52100 ng/mL
level at 8 h [1, 7]: 43800 ng/mL
level at 12 h [1, 7]: 39000 ng/mL
level at 24 h [1, 7]: 25400 ng/mL
level at 36 h [1, 7]: 17200 ng/mL
level at 48 h [1, 7]: 11000 ng/mL

IC50 (integrin αvβ6): 1.4 nM
Compound: CC[C@H](C)[C@@H]1NC(=O)[C@H](CO)NC(=O)CNC(=O)[C@H](CCCNC(=N)N)NC(=O)CNC(=O)CNC(=O)CC[C@@H](C(=O)N[C@@H](Cc2ccc(O)cc2)C(=O)N[C@@H](Cc2ccccc2)C(=O)N[C@@H](CCC(N)=O)C(=O)N[C@@H](CCCNC(=N)N)C(=O)NCC(=O)N[C@@H](CC(=O)O)C(=O)N[C@@H](CC(C)C)C(=O)N[C@@H](CCC(N)=O)C(=O)N[C@@H](CO)C(=O)N[C@@H](Cc2ccccc2)C(=O)N[C@@H](Cc2ccc(O)cc2)C(=O)NCC(=O)O)NC(=O)[C@@H]2CCCN2C1=O [lassotide 44] (GGRGSIPEYFQRGDLQSFYG-OH; lactam N-8; C-terminus assumed)
